Source: patent publication US20090018166A1, “New Pyridine Analogues X 161” (ASTRAZENECA AB, priority 2007, published 2009)

target: T1, P2Y12 receptor (Homo sapiens, UniProt Q9H244); test: Functional inhibition of 2-Me-S-ADP induced P2Y12 signalling (35S-GTPγS binding, membranes from P2Y12 transfected CHO-cells); format: biochemical; conditions: 35S-GTPγS, EC80 of 2-methyl-thio-adenosine diphosphate, P2Y12 CHO membranes; value given in each example; read-out: GTPγS(IC50 μM)
T1 construct: expressed in transfected cells; host or cells: CHO cells (membranes)
Protocol: Functional inhibition of- the P2Y12 receptor can be measured by in vitro assays using cell membranes from P2Y12 transfected CHO-cells, the methodology is indicated below.
Functional inhibition of 2-Me-S-ADP induced P2Y12 signalling: 5 μg of membranes were diluted in 200 μl of 200 mM NaCl, 1 mM MgCl2, 50 mM HEPES (pH 7.4), 0.01% BSA, 30 μg/ml saponin and 10 μM GDP. To this was added an EC80 concentration of agonist (2-methyl-thio-adenosine diphosphate), the required concentration of test compound and 0.1 μCi ^35S-GTPγS. The reaction was allowed to proceed at 30° C. for 45 min. Samples were then transferred on to GF/B filters using a cell harvester and washed with wash buffer (50 mM Tris (pH 7.4), 5 mM MgCl2, 50 mM NaCl). Filters were then covered with scintilant and counted for the amount of ^35S-GTPγS retained by the filter. Maximum activity was that determined in the presence of the agonist and minimum activity in the absence of the agonist following subtraction of the value determined for non-specific activity. The effect of compounds at various concentrations was plotted according to the equation
y=A+((B−A)/(1+((C/x)̂D)))
and IC50 estimated where A is the bottom plateau of the curve i.e. the final minimum y value B is the top of the plateau of the curve i.e. the final maximum y value C is the x value at the middle of the curve. This represents the log EC50 value when A+B=100 D is the slope factor. x is the original known x values. Y is the original known y values.

T1 sequence (Q9H244 whole entry): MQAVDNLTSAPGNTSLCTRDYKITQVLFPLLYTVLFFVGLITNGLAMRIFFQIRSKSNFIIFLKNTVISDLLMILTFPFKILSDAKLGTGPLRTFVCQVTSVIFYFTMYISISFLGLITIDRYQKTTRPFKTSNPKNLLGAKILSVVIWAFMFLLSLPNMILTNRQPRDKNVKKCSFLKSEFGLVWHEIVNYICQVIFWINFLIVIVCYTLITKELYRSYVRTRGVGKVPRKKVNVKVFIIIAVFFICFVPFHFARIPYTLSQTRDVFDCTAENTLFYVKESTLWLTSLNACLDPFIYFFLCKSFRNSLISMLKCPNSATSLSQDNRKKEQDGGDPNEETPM

IC50	Compound
0.283 µM	CC(=O)c1cc(C#N)c(N2CCC(C(=O)NS(=O)(=O)Cc3ccccc3)CC2)nc1CN1CCCC1=O [Example 1, 1-{5-Acetyl-3-cyano-6-[(2-oxopyrrolidin-1-yl)methyl]pyridin-2-yl}-N-(benzylsulfonyl)piperidine-4-carboxamide]
0.022 µM	CCCC(=O)c1cc(C#N)c(N2CCC(C(=O)NS(=O)(=O)Cc3ccccc3)CC2)nc1CN1CCCC1=O [Example 2, N-(Benzylsulfonyl)-1-{5-butyryl-3-cyano-6-[(2-oxopyrrolidin-1-yl)methyl]pyridin-2-yl}piperidine-4-carboxamide]
1.65 µM	CC(=O)c1cc(C#N)c(N2CCC(C(=O)NS(=O)(=O)Cc3ccccc3)CC2)nc1CN1CCCCC1=O [Example 3, 1-{5-Acetyl-3-cyano-6-[(2-oxopiperidin-1-yl)methyl]pyridin-2-yl}-N-(benzylsulfonyl)piperidine-4-carboxamide]
0.021 µM	CCCC(=O)c1cc(C#N)c(N2CCC(C(=O)NS(=O)(=O)Cc3ccc(C)cc3)CC2)nc1CN1CCCCC1=O [Example 4, 1-{5-Butyryl-3-cyano-6-[(2-oxopiperidin-1-yl)methyl]pyridin-2-yl}-N-[(4-methylbenzyl)sulfonyl]piperidine-4-carboxamide]
0.009 µM	CCCC(=O)c1cc(C#N)c(N2CCC(C(=O)NS(=O)(=O)Cc3ccc(C)cc3)CC2)nc1CN1CCCC1=O [Example 5, 1-{5-butyryl-3-cyano-6-[(2-oxopyrrolidin-1-yl)methyl]pyridin-2-yl}-N-[(4-methylbenzyl)sulfonyl]piperidine-4-carboxamide]
0.0099 µM	CCCC(=O)c1cc(C#N)c(N2CCC(C(=O)NS(=O)(=O)Cc3ccc(F)cc3F)CC2)nc1CN1CCCC1=O [Example 6, 1-{5-butyryl-3-cyano-6-[(2-oxopyrrolidin-1-yl)methyl]pyridin-2-yl}-N-[(2,4-difluorobenzyl)sulfonyl]piperidine-4-carboxamide]
0.028 µM	CCCC(=O)c1cc(C#N)c(N2CCC(C(=O)NS(=O)(=O)CC3CCCC3)CC2)nc1CN1CCCC1=O [Example 7, 1-{5-Butyryl-3-cyano-6-[(2-oxopyrrolidin-1-yl)methyl]pyridin-2-yl}-N-[(cyclopentylmethyl)sulfonyl]piperidine-4-carboxamide]
0.032 µM	N#Cc1cc(C(=O)C2CC2)c(CN2CCCC2=O)nc1N1CCC(C(=O)NS(=O)(=O)Cc2ccccc2)CC1 [Example 8, N-(benzylsulfonyl)-1-{3-cyano-5-(cyclopropylcarbonyl)-6-[(2-oxopyrrolidin-1-yl)methyl]pyridin-2-yl}piperidine-4-carboxamide]
0.058 µM	N#Cc1cc(C(=O)C2CC2)c(CN2CCCC2=O)nc1N1CCC(C(=O)NS(=O)(=O)CC2CCCC2)CC1 [Example 9, 1-{3-Cyano-5-(cyclopropylcarbonyl)-6-[(2-oxopyrrolidin-1-yl)methyl]pyridin-2-yl}-N-[(cyclopentylmethyl)sulfonyl]piperidine-4-carboxamide]
0.098 µM	CCC(=O)c1cc(C#N)c(N2CCC(C(=O)NS(=O)(=O)Cc3ccccc3)CC2)nc1CN1CCCC1=O [Example 10, N-(benzylsulfonyl)-1-{3-cyano-6-[(2-oxopyrrolidin-1-yl)methyl]-5-propionylpyridin-2-yl}piperidine-4-carboxamide]
0.037 µM	CCC(=O)c1cc(C#N)c(N2CCC(C(=O)NS(=O)(=O)Cc3ccc(C)cc3)CC2)nc1CN1CCCC1=O [Example 11, 1-{3-cyano-6-[(2-oxopyrrolidin-1-yl)methyl]-5-propionylpyridin-2-yl}-N-[(4-methylbenzyl)sulfonyl]piperidine-4-carboxamide]
0.328 µM	CCC(=O)c1cc(C#N)c(N2CCC(C(=O)NS(=O)(=O)CC3CCCC3)CC2)nc1CN1CCCC1=O [Example 12, 1-{3-Cyano-6-[(2-oxopyrrolidin-1-yl)methyl]-5-propionylpyridin-2-yl}-N-[(cyclopentylmethyl)sulfonyl]piperidine-4-carboxamide]
0.153 µM	CN(c1ccccc1)S(=O)(=O)NC(=O)C1CCN(c2nc(CN3CCCCC3=O)c(C(=O)C3CC3)cc2C#N)CC1 [Example 13, 1-{3-Cyano-5-(cyclopropylcarbonyl)-6-[(2-oxopiperidin-1-yl)methyl]pyridin-2-yl}-N-{[methyl(phenyl)amino]sulfonyl}piperidine-4-carboxamide]
0.461 µM	N#Cc1cc(C(=O)C2CC2)c(CN2CCCCC2=O)nc1N1CCC(C(=O)NS(=O)(=O)CC2CCCC2)CC1 [Example 14, 1-{3-Cyano-5-(cyclopropylcarbonyl)-6-[(2-oxopiperidin-1-yl)methyl]pyridin-2-yl}-N-[(cyclopentylmethyl)sulfonyl]piperidine-4-carboxamide]
0.106 µM	CC(C)C(=O)c1cc(C#N)c(N2CCC(C(=O)NS(=O)(=O)Cc3ccccc3)CC2)nc1CN1CCCC1=O [Example 15, N-(Benzylsulfonyl)-1-{3-cyano-5-isobutyryl-6-[(2-oxopyrrolidin-1-yl)methyl]pyridin-2-yl}piperidine-4-carboxamide]
0.396 µM	CC(C)C(=O)c1cc(C#N)c(N2CCC(C(=O)NS(=O)(=O)CC3CCCC3)CC2)nc1CN1CCCC1=O [Example 16, 1-{3-Cyano-5-isobutyryl-6-[(2-oxopyrrolidin-1-yl)methyl]pyridin-2-yl}-N-[(cyclopentylmethyl)sulfonyl]piperidine-4-carboxamide]
0.029 µM	CCCCC(=O)c1cc(C#N)c(N2CCC(C(=O)NS(=O)(=O)CC3CCCC3)CC2)nc1CN1CCCC1=O [Example 17, 1-{3-Cyano-6-[(2-oxopyrrolidin-1-yl)methyl]-5-pentanoylpyridin-2-yl}-N-[(cyclopentylmethyl)sulfonyl]piperidine-4-carboxamide]
0.013 µM	CCCCC(=O)c1cc(C#N)c(N2CCC(C(=O)NS(=O)(=O)Cc3ccccc3)CC2)nc1CN1CCCC1=O [Example 18, N-(Benzylsulfonyl)-1-{3-cyano-6-[(2-oxopyrrolidin-1-yl)methyl]-5-pentanoylpyridin-2-yl}piperidine-4-carboxamide]
0.0086 µM	CCCCC(=O)c1cc(C#N)c(N2CCC(C(=O)NS(=O)(=O)Cc3ccc(C)cc3)CC2)nc1CN1CCCC1=O [Example 19, 1-{3-Cyano-6-[(2-oxopyrrolidin-1-yl)methyl]-5-pentanoylpyridin-2-yl}-N-[(4-methylbenzyl)sulfonyl]piperidine-4-carboxamide]
0.013 µM	CCCCC(=O)c1cc(C#N)c(N2CCC(C(=O)NS(=O)(=O)Cc3ccc(F)cc3F)CC2)nc1CN1CCCC1=O [Example 20, 1-{3-Cyano-6-[(2-oxopyrrolidin-1-yl)methyl]-5-pentanoylpyridin-2-yl}-N-[(2,4-difluorobenzyl)sulfonyl]piperidine-4-carboxamide]
0.023 µM	CCCCC(=O)c1cc(C#N)c(N2CCC(C(=O)NS(=O)(=O)N(C)c3ccc(F)cc3)CC2)nc1CN1CCCC1=O [Example 21, 1-{3-Cyano-6-[(2-oxopyrrolidin-1-yl)methyl]-5-pentanoylpyridin-2-yl}-N-{[(4-fluorophenyl)(methyl)amino]sulfonyl}piperidine-4-carboxamide]
0.017 µM	CCCCC(=O)c1cc(C#N)c(N2CCC(C(=O)NS(=O)(=O)N(C)c3ccccc3)CC2)nc1CN1CCCC1=O [Example 22, 1-{3-Cyano-6-[(2-oxopyrrolidin-1-yl)methyl]-5-pentanoylpyridin-2-yl}-N-{[methyl(phenyl)amino]sulfonyl}piperidine-4-carboxamide]
0.042 µM	CN(c1ccccc1)S(=O)(=O)NC(=O)C1CCN(c2nc(CN3CCCC3=O)c(C(=O)C3CC3)cc2C#N)CC1 [Example 23, 1-{3-Cyano-5-(cyclopropylcarbonyl)-6-[(2-oxopyrrolidin-1-yl)methyl]pyridin-2-yl}-N-{[methyl(phenyl)amino]sulfonyl}piperidine-4-carboxamide]
0.428 µM	N#Cc1cc(C(=O)C2CC2)c(CN2CCCC2=O)nc1N1CCC(C(=O)NS(=O)(=O)CC2CCC2)CC1 [Example 24, 1-{3-Cyano-5-(cyclopropylcarbonyl)-6-[(2-oxopyrrolidin-1-yl)methyl]pyridin-2-yl}-N-[(cyclobutylmethyl)sulfonyl]piperidine-4-carboxamide]
0.026 µM	CN(c1ccc(F)cc1)S(=O)(=O)NC(=O)C1CCN(c2nc(CN3CCCC3=O)c(C(=O)C3CC3)cc2C#N)CC1 [Example 25, 1-{3-Cyano-5-(cyclopropylcarbonyl)-6-[(2-oxopyrrolidin-1-yl)methyl]pyridin-2-yl}-N-{[(4-fluorophenyl)(methyl)amino]sulfonyl}piperidine-4-carboxamide]

Compound	IC50
1-{3-chloro-6-[(2-oxopyrrolidin-1-yl)methyl]-5-pentanoylpyridin-2-yl}-N-[(2,4-difluorobenzyl)sulfonyl]-N-methylpiperidine-4-carboxamide [Example 71]	0.903 µM

same assay, conditions: functional inhibition of 2-Me-S-ADP induced P2Y12 signalling assay; EC80 of agonist; summary table in Pharmacological Data; read-out: IC50

IC50	Compound
0.28 µM	CCCC(=O)c1cc(C#N)c(N2CCC(C(=O)NS(=O)(=O)Cc3ccc(C)cc3)CC2)nc1CN1CCCCC1=O [Example 4, 1-{5-Butyryl-3-cyano-6-[(2-oxopiperidin-1-yl)methyl]pyridin-2-yl}-N-[(4-methylbenzyl)sulfonyl]piperidine-4-carboxamide]
0.13 µM	CCC(=O)c1cc(C#N)c(N2CCC(C(=O)NS(=O)(=O)CC3CCCC3)CC2)nc1CN1CCCC1=O [Example 12, 1-{3-Cyano-6-[(2-oxopyrrolidin-1-yl)methyl]-5-propionylpyridin-2-yl}-N-[(cyclopentylmethyl)sulfonyl]piperidine-4-carboxamide]
